Structures can show the parent of a compound that is named as a salt. Where two headings read alike, the source gives them in different places.
Biological target: T1, MMP-1 (Homo sapiens, UniProt P03956)
T1 construct: made in house; host or cells: MMP-1-transfected HT-1080 cells (spent media)
T1 sequence (P03956 100-469): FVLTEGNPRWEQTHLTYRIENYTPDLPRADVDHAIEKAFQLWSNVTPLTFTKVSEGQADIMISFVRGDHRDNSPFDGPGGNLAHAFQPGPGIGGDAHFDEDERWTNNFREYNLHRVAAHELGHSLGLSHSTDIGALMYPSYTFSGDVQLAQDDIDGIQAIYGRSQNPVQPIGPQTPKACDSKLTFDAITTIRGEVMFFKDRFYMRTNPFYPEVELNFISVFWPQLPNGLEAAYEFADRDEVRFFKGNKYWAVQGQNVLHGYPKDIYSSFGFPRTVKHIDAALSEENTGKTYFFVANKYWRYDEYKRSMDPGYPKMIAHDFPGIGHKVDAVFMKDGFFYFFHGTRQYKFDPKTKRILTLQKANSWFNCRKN
Test: In vitro MMP inhibition, Ki determination (fluorogenic substrate II)
Type: biochemical
Experimental: Several hydroxamic acids and salts thereof were analyzed in in vitro assays to determine their ability to inhibit the MMP cleavage of peptide substrates. […] and IC50 constants were calculated from the assayed hydroxamic acid-MMP interactions.
Human recombinant MMP-1, MMP-2, MMP-9, MMP-13, and MMP-14 were used in this assay. All enzymes were prepared in Assignee's laboratories following usual laboratory procedures. Protocols for the preparation and use of these enzymes are available in the scientific literature. See, e.g., Enzyme Nomenclature (Academic Press, San Diego, Calif., 1992) (and the citations therein). See also, Freije et al., “Molecular cloning and expression of collagenase-3, a novel human matrix metalloproteinase produced by breast carcinomas,” J Biol. Chem., 269(24), 16766-16773 (1994).
The MMP-1 proenzyme was purified from the spent media of MMP-1-transfected HT-1080 cells provided by Dr. Harold Welgus of Washington University (St. Louis, Mo.). The protein was purified on a zinc chelating column.
All MMPs were activated using 4-aminophenylmercuric acetate (“APMA”, Sigma Chemical, St. Louis, Mo.) or trypsin. MMP-9 also was activated using human recombinant MMP-3 (purified in Assignee's laboratory following standard cloning and purification techniques).
Two fluorogenic, methoxycoumarin-containing polypeptide substrates were used in the MMP inhibition assays: [drawing 427] Here, “Dpa” is 3-(2,4-dinitrophenyl)-L-2,3-diaminopropionyl group, and “MCA” is 7-methoxycoumarin-4-yl acetyl. Substrate (I) was purchased from Baychem (Redwood City, Calif.), and substrate II was prepared Assignee's laboratory. Substrate I was used in the IC50 determination assays, while substrate II was used in the Ki determination assays. In the absence of MMP inhibitory activity, either substrate is cleaved at the Gly-Leu peptide bond. This cleavage separates the highly fluorogenic peptide from the 2,4-dinitrophenyl quencher, thus resulting in increase of fluorescent intensity.
The stock solutions of the assayed hydroxamic acids (or salts thereof) were prepared in 1% dimethyl sulfoxide (DMSO). These stock solutions were diluted in Buffer A (100 mM Tris-HCl, 100 mM NaCl, 10 mM CaCl2, 0.05% polyoxyethylene 23 lauryl ether, pH 7.5) to obtain solutions with different hydroxamic acid concentrations, i.e., assay solutions with different concentrations of the assayed MMP inhibitory compound. The experiment controls contained the same amount of Buffer A/DMSO as the assayed sample, but contained no hydroxamic acid (or salt thereof).
The assays from which the Ki determinations were made were performed as follows. The assayed hydroxamic acid samples were incubated in separate wells of untreated white polystyrene plates (Nunc Nalgene International, Rochester, N.Y.), and analyzed on a Tecan SpectraFlour Plus plate reader. The excitation wavelength was 330 nm, and the emission wavelength—420 nm. All samples (assayed hydroxamic acids and controls) were incubated in separate plate wells at room temperature for 1 hr in the presence of 4 μM of MMP substrate (II). In the absence of MMP inhibitory activity, substrate II was cleaved at the Gly-Leu bond resulting in an increase of relative fluorescence. Inhibition was observed as a reduced rate of this increase in relative fluorescence. The various hydroxamic acids were analyzed using a single low enzyme concentration with a single substrate concentration fixed at or below the Km. This protocol is a modification of method by Knight et al., FEBS Lett., 296(3), 263-266 (1992). Apparent inhibitory constants were determined by non-linear regression of reaction velocity as a function of inhibitor and enzyme concentration using Morrison's equation, as described by Kuzmic, Anal. Biochem. 286, 45-50 (2000). […] Since the substrate concentration was chosen to be at or below the Km, the apparent Ki's from this analysis were reported as Ki's without correction for the influence of substrate.

[1] = human recombinant enzyme, 4 μM substrate II, room temperature, 1 hr, read-out: MMP-1 Ki
[2] = value not in parenthesis, read-out: MMP-1 Ki
[3] = MMP-1 Ki, value not in parenthesis

SMILES	Ki [2] [µM]	further results
CCCCc1ccc(C2CCN(S(=O)(=O)C3(C(=O)NO)CCN(C4CC4)CC3)CC2)nc1 [Example 24, 4-{[4-(5-butylpyridin-2-yl)piperidin-1-yl]sulfonyl}-1-cyclopropyl-N-hydroxypiperidine-4-carboxamide Hydrochloride]		Ki [1]: > 10 µM
O=C(NO)C1(S(=O)(=O)N2CCC(c3ccc(OCC(F)(F)F)cc3)CC2)CCN(C2CC2)CC1 [Example 25, 1-cyclopropyl-N-hydroxy-4-({4-[4-(2,2,2-trifluoroethoxy)phenyl]piperidin-1-yl}sulfonyl)piperidine-4-carboxamide Hydrochloride]		Ki [1]: > 10 µM
CCCCCCCCC1CCN(S(=O)(=O)C2(C(=O)NO)CCOCC2)CC1 [Example 26, 4-(4-octyl-piperidine-1-sulfonyl)-tetrahydro-pyran-4-carboxylic Acid Hydroxyamide]		Ki [1]: 2.97 µM
O=C(NO)C1(S(=O)(=O)N2CCC(c3cnc(OCC(F)(F)C(F)(F)F)cn3)CC2)CCOCC1 [Example 27]		Ki [1]: 4.78 µM
O=C(NO)C1(S(=O)(=O)N2CCN(c3ccc(COCC(F)(F)C(F)(F)C(F)(F)C(F)F)cc3)CC2)CCOCC1 [Example 68]		Ki [3]: > 10 µM
O=C(NO)C1(S(=O)(=O)N2CCN(c3ccc(COCC(F)(F)C(F)(F)C(F)(F)F)cc3)CC2)CCOCC1 [Example 69]		Ki [3]: > 10 µM
C=CCCOC(=O)N1CCC(C(=O)NO)(S(=O)(=O)N2CCN(c3ccc(OCCCC)cc3)CC2)CC1 [Example 101]	> 10	
COCCN1CCC(C(=O)NO)(S(=O)(=O)N2CCN(c3ccc(OCCCC(F)(F)F)cc3F)CC2)CC1 [Example 102]	> 10	
O=C(NO)C1(S(=O)(=O)N2CCN(c3ncc(Br)cn3)CC2)CCOCC1 [Example 103]	0.686	
O=C(NO)C1(S(=O)(=O)N2CCN(c3ncc(Br)cn3)CC2)CCOCC1 [Example 104]	0.835	
O=C(NO)C1(S(=O)(=O)N2CCN(c3ncccn3)CC2)CCOCC1 [Example 106]	1.47	
O=C(NO)C1(S(=O)(=O)N2CCN(c3ncccn3)CC2)CCOCC1 [Example 107]	1.19	
CCCCCCCCCc1cnc(N2CCN(S(=O)(=O)C3(C(=O)NO)CCOCC3)CC2)nc1 [Example 111]	> 10	
CCCCOc1ccc(N2CCN(S(=O)(=O)C3(C(=O)NO)CCN(C(=O)OCC(F)(F)F)CC3)CC2)cc1 [Example 115]	> 10	
CC(C)(C)N1CCC(C(=O)NO)(S(=O)(=O)N2CCN(c3ccc(OCCCC(F)(F)F)cc3F)CC2)CC1 [Example 116]	> 10	
CCCCOc1ccc(N2CCN(S(=O)(=O)C3(C(=O)NO)CCN(C(=O)NCCOC)CC3)CC2)cc1 [Example 118]	> 10	
COCCN1CCC(C(=O)NO)(S(=O)(=O)N2CCN(c3ccc(OCC(F)(F)F)cc3)CC2)CC1 [Example 119]	> 10	
CCCCOc1ccc(N2CCN(S(=O)(=O)C3(C(=O)NO)CCN(c4ccc(O)cc4)CC3)CC2)cc1 [Example 121]	> 10	
CCCCOc1ccc(N2CCN(S(=O)(=O)C3(C(=O)NO)CCN(C(=S)N(C)C)CC3)CC2)cc1 [Example 123]	> 10	
CCCCOc1ccc(N2CCN(S(=O)(=O)C3(C(=O)NO)CCN(C(=O)N4CCOCC4)CC3)CC2)cc1 [Example 124]	> 10	
CCCCOc1ccc(N2CCN(S(=O)(=O)C3(C(=O)NO)CCN(c4ccc(C)cn4)CC3)CC2)cc1 [Example 125]	> 10	
CCCCOc1ccc(N2CCN(S(=O)(=O)C3(C(=O)NO)CCN4CCCC4C3)CC2)cc1F (stereo not drawn) [Example 126]	> 10	
CCCCOc1ccc(N2CCN(S(=O)(=O)C3(C(=O)NO)CCN(C(=O)c4cc5ccccc5o4)CC3)CC2)cc1 [Example 127]	> 10	
CCCCOc1ccc(N2CCN(S(=O)(=O)C3(C(=O)NO)CCN(c4nccc(C(F)(F)F)n4)CC3)CC2)cc1 [Example 130]	> 10	
CCCCOc1ccc(N2CCN(S(=O)(=O)C3(C(=O)NO)CCN(c4ccc(C)nc4)CC3)CC2)cc1 [Example 131]	> 10	
CCCc1ccc(N2CCN(S(=O)(=O)C3(C(=O)NO)CCOCC3)CC2)nc1 [Example 136]	2.38	
Cc1ccc(N2CCN(S(=O)(=O)C3(C(=O)NO)CCOCC3)CC2)nc1 [Example 138]	1.38	
CCCCOc1ccc(N2CCN(S(=O)(=O)C3(C(=O)NO)CCN(c4cnccn4)CC3)CC2)cc1 [Example 140]	> 10	
CCCCOc1ccc(N2CCN(S(=O)(=O)C3(C(=O)NO)CCN(c4ccc(OC)nc4)CC3)CC2)cc1 [Example 142]	> 10	

Second part, led by results:

Ki [2] [µM]	SMILES	further results
> 10	CCCCCc1cnc(N2CCN(S(=O)(=O)C3(C(=O)NO)CCOCC3)CC2)s1 [Example 56]	
0.555	O=C(NO)C1(S(=O)(=O)N2CCN(c3ccc(-c4ccc(Cl)cc4)cn3)CC2)CCOCC1 [Example 60]	
> 10	COc1ccc(N2CCN(S(=O)(=O)C3(C(=O)NO)CCOCC3)CC2)nc1 [Example 108]	
> 10	COc1ccc(N2CCN(S(=O)(=O)C3(C(=O)NO)CCOCC3)CC2)nc1 [Example 109]	
> 10	CCCCCCCCCc1cnc(N2CCN(S(=O)(=O)C3(C(=O)NO)CCOCC3)CC2)nc1 [Example 110]	
> 10	O=C(NO)C1(S(=O)(=O)N2CCN(c3ccc(OCCCC(F)(F)F)cc3)CC2)CCN(c2cnccn2)CC1 [Example 112]	
> 10	CCCCOc1ccc(N2CCN(S(=O)(=O)C3(C(=O)NO)CCN(C(=O)OCCF)CC3)CC2)cc1 [Example 113]	
1.61	CCc1ccc(N2CCN(S(=O)(=O)C3(C(=O)NO)CCOCC3)CC2)nc1 [Example 114]	
> 10	O=C(NO)C1(S(=O)(=O)N2CCN(c3ccc(OCCCC(F)(F)F)cc3F)CC2)CCOCC1 [Example 117]	
> 10	O=C(c1cccnc1)N1CCC(C(=O)NO)(S(=O)(=O)N2CCN(c3ccc(OCCCC(F)(F)F)cc3)CC2)CC1 [Example 122]	
> 10	CC(C)CCOc1ccc(N2CCN(S(=O)(=O)C3(C(=O)NO)CCN(C4CC4)CC3)CC2)cc1 [Example 128]	
> 10	CCCCOc1ccc(N2CCN(S(=O)(=O)C3(C(=O)NO)CCN(c4ccc(OCCOC)nn4)CC3)CC2)cc1 [Example 129]	
0.0661	O=C1c2ccccc2C(=O)N1CCCCc1ccc(N2CCN(S(=O)(=O)C3(C(=O)NO)CCOCC3)CC2)nc1 [Example 132]	
> 10	CC(C)CCc1ccc(N2CCN(S(=O)(=O)C3(C(=O)NO)CCOCC3)CC2)nc1 [Example 133]	
7.24	CCCCOc1ccc(N2CCN(S(=O)(=O)C3(C(=O)NO)CCN(c4cc(C)ccn4)CC3)CC2)cc1 [Example 139]	
8.9	CCCCOc1ccc(N2CCN(S(=O)(=O)C3(C(=O)NO)CCN(C(=O)OCCOC)CC3)CC2)cc1 [Example 141]	
> 10	CCCCOc1ccc(N2CCN(S(=O)(=O)C3(C(=O)NO)CCN(C(=O)c4cc5ccccc5s4)CC3)CC2)cc1 [Example 143]	
> 10	COCCN1CCC(C(=O)NO)(S(=O)(=O)N2CCN(c3ccc(OCC(F)(F)C(F)(F)F)cc3)CC2)CC1 [Example 144]	
> 10	CCCCOc1ccc(N2CCN(S(=O)(=O)C3(C(=O)NO)CCOCC3)CC2)cc1 [Example 145]	
